We go through 22 molecules from patent publication US20210009542A1 (Calico Life Sciences LLC, priority 2018, published 2021).

pIC50: −log10 of the molar value. Where two headings read alike, the source gives them in different places. Some results are limits rather than exact numbers.

As usually defined, the pIC50 is −log10 of the IC50, conventionally taken in molar units.

For experiment [1], the system named is B16F10 mouse melanoma cells. Briefly: B16F10 IFNγ-induced cellular growth inhibition assay. Format: cell-based. The following applies: Mus musculus, B16-F10, 33 μM compound. The method in brief: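 Live-cell imaging of confluence every 6 h over 5 days at 37 °C tracked growth of mouse B16F10 melanoma cells seeded overnight at 500/well. Semi-log compound series (final 100–0.001 μM, 0.1% DMSO) ran in both arms, ±IFNγ at 0.5 ng/mL final; inhibition taken relative to DMSO plus IFNγ when IFNγ-free DMSO wells passed 95% confluence.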

Experiment [2] deals with T1, His tagged PTPN2 (TC45) protein (Homo sapiens, UniProt P17706).
T1 construct: made in house
T1 sequence (P17706 with tags, fused parts or gaps isoform P17706-2): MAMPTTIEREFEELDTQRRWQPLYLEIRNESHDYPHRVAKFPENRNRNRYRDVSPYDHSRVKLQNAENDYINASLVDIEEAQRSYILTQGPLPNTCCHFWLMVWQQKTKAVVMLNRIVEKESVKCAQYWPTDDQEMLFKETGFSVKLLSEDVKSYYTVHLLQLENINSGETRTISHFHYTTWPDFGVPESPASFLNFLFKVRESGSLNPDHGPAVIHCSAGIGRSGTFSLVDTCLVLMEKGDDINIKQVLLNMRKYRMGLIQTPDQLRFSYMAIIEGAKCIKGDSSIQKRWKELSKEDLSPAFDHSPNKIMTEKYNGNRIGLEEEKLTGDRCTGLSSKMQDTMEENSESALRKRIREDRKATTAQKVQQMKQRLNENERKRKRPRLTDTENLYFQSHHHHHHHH
Description: Mobility shift assay (MSA) for potency of PTPN2 inhibitors. The following applies: read-out: PTPN2 MSA IC50. Type of experiment: biochemical. The essentials:
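IC50 values were derived from % inhibition of substrate conversion, measured by microfluidic mobility shift (ex 488/em 530) after quenching. The fluorescent phosphotyrosine insulin-receptor peptide ([…]) reacted for 10 min at room temperature with 0.5 nM His-tagged TC45 PTPN2 that had been preincubated 10 min with compound (12 points, 1:3). Buffer was HEPES pH 7.5 with EGTA, EDTA, Tween 20 and DTT.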

[3] abbreviates: +0.5 ng/mL IFNγ, relative to DMSO control, read-out: % B16F10 growth inhibition (+0.5 ng/mL IFNγ) @ 33 μM.
[4] abbreviates: no IFNγ, read-out: % B16F10 growth inhibition (no IFNγ) @ 33 μM.

Regarding `O=C1CN(c2c(O)cc3ccc(OCCF)cc3c2F)S(=O)(=O)N1` [Compound 198, 5-[1-fluoro-7-(2-fluoroethoxy)-3-hydroxynaphthalen-2-yl]-1λ^6,2,5-thiadiazolidine-1,1,3-trione], the values for the inhibition at 33 µM in experiment [1] (setting [3]) and in experiment [1] (setting [4]) were 60 to 90% and under 25%, respectively. Moreover, the pIC50 in experiment [2] is 8.00 to 9.00.
With `COC(C)(C)CCOc1ccc2cc(O)c(N3CC(=O)NS3(=O)=O)c(F)c2c1` [Compound 170, 5-[1-fluoro-3-hydroxy-7-(3-methoxy-3-methylbutoxy)naphthalen-2-yl]-1λ^6,2,5-thiadiazolidine-1,1,3-trione], the inhibition at 33 µM was 60 to 90% in experiment [1] (setting [3]) and under 25% in experiment [1] (setting [4]). In addition, in experiment [2], the pIC50 is over 9.00.
Take `CC(C)S(=O)(=O)N1CC=C(c2ccc3cc(O)c(N4CC(=O)NS4(=O)=O)c(F)c3c2)C1` [Compound 296, 5-{1-fluoro-3-hydroxy-7-[1-(propane-2-sulfonyl)-2,5-dihydro-1H-pyrrol-3-yl]naphthalen-2-yl}-1λ^6,2,5-thiadiazolidine-1,1,3-trione]: the inhibition at 33 µM in experiment [1] (setting [3]) was over 90%; in experiment [1] (setting [4]), under 25%. Further, the pIC50 in experiment [2] was over 9.00.
For the molecule `O=C1CN(c2c(O)cc3ccc(/C=C/C4CC4)cc3c2F)S(=O)(=O)N1` [Compound 239, 5-{7-[(E)-2-cyclopropylethenyl]-1-fluoro-3-hydroxynaphthalen-2-yl}-1λ^6,2,5-thiadiazolidine-1,1,3-trione], the inhibition at 33 µM in experiment [1] (setting [3]) is 60 to 90%; in experiment [1] (setting [4]) it was under 25%. The pIC50 in experiment [2] was 8.00 to 9.00.
For `O=C1CN(c2c(O)cc3ccc(OCCCC(F)(F)F)cc3c2F)S(=O)(=O)N1` [Compound 158, 5-[1-fluoro-3-hydroxy-7-(4,4,4-trifluorobutoxy)naphthalen-2-yl]-1λ^6,2,5-thiadiazolidine-1,1,3-trione], the results for the inhibition at 33 µM in experiment [1] (setting [3]) and in experiment [1] (setting [4]) were 60 to 90% and under 25%, respectively. In addition, in experiment [2], the pIC50 was 8.00 to 9.00.
Regarding `O=C1CN(c2c(O)cc3ccc(C4CN(C(=O)C5CC5)C4)cc3c2F)S(=O)(=O)N1` [Compound 207, 5-{7-[1-(cyclopropanecarbonyl)azetidin-3-yl]-1-fluoro-3-hydroxynaphthalen-2-yl}-1λ^6,2,5-thiadiazolidine-1,1,3-trione], the inhibition at 33 µM in experiment [1] (setting [3]) was 25 to 59%; in experiment [1] (setting [4]), under 25%. In experiment [2], the pIC50 was 8.00 to 9.00.
Regarding `COc1ccc2c(F)c(O)c(N3CC(=O)NS3(=O)=O)c(F)c2c1` [Compound 117, 5-(1,4-difluoro-3-hydroxy-7-methoxynaphthalen-2-yl)-1λ^6,2,5-thiadiazolidine-1,1,3-trione], the inhibition at 33 µM in experiment [1] (setting [3]) was 25 to 59%; in experiment [1] (setting [4]), under 25%. In experiment [2], the pIC50 is 8.00 to 9.00.
As to `O=C1CN(c2c(O)cc3ccc(OCC(F)F)cc3c2F)S(=O)(=O)N1` [Compound 302, 5-[7-(2,2-difluoroethoxy)-1-fluoro-3-hydroxynaphthalen-2-yl]-1λ^6,2,5-thiadiazolidine-1,1,3-trione], the inhibition at 33 µM is 60 to 90% in experiment [1] (setting [3]) and under 25% in experiment [1] (setting [4]). For the same molecule, the pIC50 in experiment [2] is 8.00 to 9.00.
For `O=C1CN(c2c(O)cc3ccc(OC4COC4)cc3c2F)S(=O)(=O)N1` [Compound 274, 5-{1-fluoro-3-hydroxy-7-[(oxetan-3-yl)oxy]naphthalen-2-yl}-1λ^6,2,5-thiadiazolidine-1,1,3-trione], the figures for the inhibition at 33 µM in experiment [1] (setting [3]) and in experiment [1] (setting [4]) were 60 to 90% and under 25%, respectively. Besides, the pIC50 in experiment [2] is 8.00 to 9.00.
Take `[2H]C([2H])([2H])Oc1ccc2cc(O)c(N3CC(=O)NS3(=O)=O)c(F)c2c1` [Compound 118, 5-{1-fluoro-3-hydroxy-7-[(^2H3)methyloxy]naphthalen-2-yl}-1λ^6,2,5-thiadiazolidine-1,1,3-trione]: the inhibition at 33 µM in experiment [1] (setting [3]) was 60 to 90%; in experiment [1] (setting [4]), under 25%. For the same molecule, the pIC50 in experiment [2] is 8.00 to 9.00.
The like results for `O=C1CN(c2c(O)cc3ccc(OCC4CC(F)(F)C4)cc3c2F)S(=O)(=O)N1` [Compound 235, 5-{7-[(3,3-difluorocyclobutyl)methoxy]-1-fluoro-3-hydroxynaphthalen-2-yl}-1λ^6,2,5-thiadiazolidine-1,1,3-trione] were, in that order, 60 to 90%, under 25% and 8.00 to 9.00.
The like results for `O=C1CN(c2c(O)cc3ccc(C(F)F)cc3c2F)S(=O)(=O)N1` [Compound 167, 5-[7-(difluoromethyl)-1-fluoro-3-hydroxynaphthalen-2-yl]-1λ^6,2,5-thiadiazolidine-1,1,3-trione] were, in that order, 60 to 90%, under 25% and 7.00 to 8.00.
On to `CC(C)NC(=O)Oc1ccc2cc(O)c(N3CC(=O)NS3(=O)=O)c(F)c2c1` [Compound 103, 8-fluoro-6-hydroxy-7-(1,1,4-trioxo-1λ^6,2,5-thiadiazolidin-2-yl)naphthalen-2-yl propan-2-ylcarbamate], for which the results for the inhibition at 33 µM in experiment [1] (setting [3]) and in experiment [1] (setting [4]) were 60 to 90% and under 25%, respectively. Moreover, the pIC50 in experiment [2] was 8.00 to 9.00.
In the case of `CS(=O)(=O)N1CC[C@@H](Nc2ccc3cc(O)c(N4CC(=O)NS4(=O)=O)c(F)c3c2)C1` [Compound 304, 5-(1-fluoro-3-hydroxy-7-{[(3R)-1-(methanesulfonyl)pyrrolidin-3-yl]amino}naphthalen-2-yl)-1λ^6,2,5-thiadiazolidine-1,1,3-trione], the inhibition at 33 µM was over 90% in experiment [1] (setting [3]) and under 25% in experiment [1] (setting [4]). The pIC50 in experiment [2] is 8.00 to 9.00.
Turning to `O=C1CN(c2c(O)cc3ccc(OCC4CCOCC4)cc3c2F)S(=O)(=O)N1` [Compound 273, 5-{1-fluoro-3-hydroxy-7-[(oxan-4-yl)methoxy]naphthalen-2-yl}-1λ^6,2,5-thiadiazolidine-1,1,3-trione], the results for the inhibition at 33 µM in experiment [1] (setting [3]) and in experiment [1] (setting [4]) were 60 to 90% and under 25%, respectively. In addition, in experiment [2], the pIC50 was 8.00 to 9.00.
`CC(C)CCS(=O)(=O)N1CC=C(c2ccc3cc(O)c(N4CC(=O)NS4(=O)=O)c(F)c3c2)C1` [Compound 313, 5-{1-fluoro-3-hydroxy-7-[1-(3-methylbutane-1-sulfonyl)-2,5-dihydro-1H-pyrrol-3-yl]naphthalen-2-yl}-1λ^6,2,5-thiadiazolidine-1,1,3-trione]: the inhibition at 33 µM is 60 to 90% in experiment [1] (setting [3]) and under 25% in experiment [1] (setting [4]). Also, in experiment [2], the pIC50 is over 9.00.
Consider `N#CCCCNc1ccc2cc(O)c(N3CC(=O)NS3(=O)=O)c(F)c2c1` [Compound 174, 4-{[8-fluoro-6-hydroxy-7-(1,1,4-trioxo-1λ^6,2,5-thiadiazolidin-2-yl)naphthalen-2-yl]amino}butanenitrile], for which the values for the inhibition at 33 µM in experiment [1] (setting [3]) and in experiment [1] (setting [4]) were over 90% and under 25%, respectively. For the same molecule, the pIC50 in experiment [2] is 8.00 to 9.00.
On to `N#CCCCCOc1ccc2cc(O)c(N3CC(=O)NS3(=O)=O)c(F)c2c1` [Compound 111, 5-{[8-fluoro-6-hydroxy-7-(1,1,4-trioxo-1λ^6,2,5-thiadiazolidin-2-yl)naphthalen-2-yl]oxy}pentanenitrile], for which the inhibition at 33 µM in experiment [1] (setting [3]) was 60 to 90%; in experiment [1] (setting [4]), under 25%. Also, the pIC50 in experiment [2] was over 9.00.
With `O=C1CN(c2c(O)cc3ccc(CC4CN(S(=O)(=O)C5CC5)C4)cc3c2F)S(=O)(=O)N1` [Compound 256, 5-(7-{[1-(cyclopropanesulfonyl)azetidin-3-yl]methyl}-1-fluoro-3-hydroxynaphthalen-2-yl)-1λ^6,2,5-thiadiazolidine-1,1,3-trione], the inhibition at 33 µM was 25 to 59% in experiment [1] (setting [3]) and under 25% in experiment [1] (setting [4]). Moreover, the pIC50 in experiment [2] is over 9.00.
As for `CC(C)(C#N)CCOc1ccc2cc(O)c(N3CC(=O)NS3(=O)=O)c(F)c2c1` [Compound 120, 4-{[8-fluoro-6-hydroxy-7-(1,1,4-trioxo-1λ^6,2,5-thiadiazolidin-2-yl)naphthalen-2-yl]oxy}-2,2-dimethylbutanenitrile], the inhibition at 33 µM in experiment [1] (setting [3]) is 60 to 90%; in experiment [1] (setting [4]) it was under 25%. Besides, the pIC50 in experiment [2] was over 9.00.
In the case of `O=C1CN(c2c(O)cc3ccc(OCCO)cc3c2F)S(=O)(=O)N1` [Compound 277, 5-[1-fluoro-3-hydroxy-7-(2-hydroxyethoxy)naphthalen-2-yl]-1λ^6,2,5-thiadiazolidine-1,1,3-trione], the inhibition at 33 µM is 60 to 90% in experiment [1] (setting [3]) and under 25% in experiment [1] (setting [4]). In addition, the pIC50 in experiment [2] was 8.00 to 9.00.
As for `CC(C)CS(=O)(=O)N1CC=C(c2ccc3cc(O)c(N4CC(=O)NS4(=O)=O)c(F)c3c2)C1` [Compound 300, 5-{1-fluoro-3-hydroxy-7-[1-(2-methylpropane-1-sulfonyl)-2,5-dihydro-1H-pyrrol-3-yl]naphthalen-2-yl}-1λ^6,2,5-thiadiazolidine-1,1,3-trione], the inhibition at 33 µM is 60 to 90% in experiment [1] (setting [3]) and under 25% in experiment [1] (setting [4]). Also, the pIC50 in experiment [2] was over 9.00.
